Here are results for eight compounds from patent publication US9662327B2 (AGIOS PHARMACEUTICALS, INC, priority 2011, dated 2017).

Molecules are shown by their SMILES. Bounds are passed on as bounds.

For one assay, the target named is IDH1 R132H (Homo sapiens (Human), UniProt O75874, R132H). The assay is described as follows: Assays for IDH1 R132H Inhibitors (NADPH/aKG, resazurin detection). In kind it is biochemical. The following applies: IDH1 R132H enzyme, Table 3; read-out: R132H IC50. In a few lines: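 Mutant enzyme in 150 mM NaCl, 10 mM MgCl2, 20 mM Tris pH 7.5, 0.03% BSA; compound in DMSO added to substrate mix of 8 uM NADPH and 2 mM aKG. Reaction ran 50 min at room temperature, then resazurin detection mix (30 μM) added for 5 min at room temperature.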
Sequence of IDH1 R132H (O75874 whole entry R132H): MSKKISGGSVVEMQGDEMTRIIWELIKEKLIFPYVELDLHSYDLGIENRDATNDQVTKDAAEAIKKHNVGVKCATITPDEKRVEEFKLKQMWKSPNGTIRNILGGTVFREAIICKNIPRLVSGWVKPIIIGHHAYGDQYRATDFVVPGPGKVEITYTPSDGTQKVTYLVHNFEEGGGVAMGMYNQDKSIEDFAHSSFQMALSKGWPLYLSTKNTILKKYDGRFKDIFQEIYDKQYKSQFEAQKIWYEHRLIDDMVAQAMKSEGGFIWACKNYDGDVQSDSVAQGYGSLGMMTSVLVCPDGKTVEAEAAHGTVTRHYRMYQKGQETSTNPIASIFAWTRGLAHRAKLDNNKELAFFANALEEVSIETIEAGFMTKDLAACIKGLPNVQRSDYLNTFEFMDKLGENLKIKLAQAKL

The subject of another assay is HT1080 cells. The assay is described as follows: Cellular assay for IDH1m inhibitors: inhibition of 2-HG production in HT1080 cells (LC-MS). The following applies: Homo sapiens, HT-1080, 48 hours. In kind it is cell-based. In a few lines: (§1)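 HT1080 or U87MG cells seeded at 5000 cells/well overnight, then compound added (final DMSO 0.2%) and incubated 48 hours at 37 C. 2-HG in the medium quantified by LC-MS; viability checked by CellTiter-Glo luminescence at 72 hours post compound.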

Another assay concerns U87R132H (U87MG) cells. The assay is described as follows: Cellular assay for IDH1m inhibitors: inhibition of 2-HG production in U87MG (U87R132H) cells (LC-MS). In kind it is cell-based. Conditions: Homo sapiens, U-87 MG, 48 hours. In a few lines:
as §1

For the compound `COCCC(=O)N1CCN(c2nc(C3CC3)c3c(c2C#N)CC(C)(C)OC3)CC1CC(F)(F)F` (stereo not drawn) [Compound 469, 8-cyclopropyl-6-(4-(3-methoxypropanoyl)-3-(2,2,2-trifluoroethyl)piperazin-1-yl)-3,3-dimethyl-3,4-dihydro-1H-pyrano[3,4-c]pyridine-5-carbonitrile], the IC50 on IDH1 R132H was less than 500 nM; in the assay with HT1080 cells it was 1000 to 10000 nM; with U87R132H (U87MG) cells it was 1000 to 10000 nM.
Take `CC(C)[C@@H]1CN(c2nc(C3CC3)c3c(c2C#N)CC(C)(C)OC3)CCN1C(=O)CCO` [Compound 429, (R)-8-cyclopropyl-6-(4-(3-hydroxypropanoyl)-3-isopropylpiperazin-1-yl)-3,3-dimethyl-3,4-dihydro-1H-pyrano[3,4-c]pyridine-5-carbonitrile]: the IC50 at IDH1 R132H, with HT1080 cells and in the assay with U87R132H (U87MG) cells was less than 500 nM throughout.
On to `COCCC(=O)N1CCN(c2nc(C3CC3)c3c(c2C#N)CC(C)(C)OC3)C[C@H]1C` [Compound 432, (R)-8-cyclopropyl-6-(4-(3-methoxypropanoyl)-3-methylpiperazin-1-yl)-3,3-dimethyl-3,4-dihydro-1H-pyrano[3,4-c]pyridine-5-carbonitrile], for which the IC50 on IDH1 R132H lay in the range of 500 to 1000 nM; in the assay with HT1080 cells, 1000 to 10000 nM; in the assay with U87R132H (U87MG) cells, 1000 to 10000 nM.
For the compound `CC(C)[C@@H]1CN(c2nc(C3CC3)c3c(c2C#N)CC(C)(C)OC3)CCN1C(=O)CCF` [Compound 437, (R)-8-cyclopropyl-6-(4-(3-fluoropropanoyl)-3-isopropylpiperazin-1-yl)-3,3-dimethyl-3,4-dihydro-1H-pyrano[3,4-c]pyridine-5-carbonitrile], the IC50 on IDH1 R132H is less than 500 nM; in the assay with HT1080 cells it was 1000 to 10000 nM; in the assay on U87R132H (U87MG) cells, 1000 to 10000 nM.
As to `[2H]C([2H])([2H])C([2H])(C([2H])([2H])[2H])[C@@]1([2H])N(C(=O)CC(F)(F)F)C([2H])([2H])C([2H])([2H])N(c2nc(C3CC3)c3c(c2C#N)CC(C)(C)OC3)C1([2H])[2H]` [Compound 477, (R)-8-cyclopropyl-3,3-dimethyl-6-(2,2,3,5,5-pentadeuterio-3-(1,1,1,3,3,3-hexadeuteriopropan-2-yl)-4-(3,3,3-trifluoropropanoyl)piperazin-1-yl)-3,4-dihydro-1H-pyrano[3,4-c]pyridine-5-carbonitrile], the values for the IC50 on IDH1 R132H, in the assay with HT1080 cells and with U87R132H (U87MG) cells were less than 500 nM, 1000 to 10000 nM and 1000 to 10000 nM, respectively.
With `COC(=O)N1CCc2c(C#N)c(N3CCN(C(=O)C4CC4)[C@H](C4CC4)C3)nc(C3CC3)c2C1` [Compound 494, (R)-methyl 5-cyano-6-(4-(cyclopropanecarbonyl)-3-cyclopropylpiperazin-1-yl)-8-cyclopropyl-3,4-dihydro-2,7-naphthyridine-2(1H)-carboxylate], the IC50 on IDH1 R132H is 500 to 1000 nM; with HT1080 cells, less than 500 nM; with U87R132H (U87MG) cells it was less than 500 nM.
Regarding `CCOC(=O)C1CN(c2nc(C3CC3)c3c(c2C#N)CC(C)(C)OC3)CCN1C(=O)Cc1cccs1` (stereo not drawn) [Compound 421, Ethyl 4-(5-cyano-8-cyclopropyl-3,3-dimethyl-3,4-dihydro-1H-pyrano[3,4-c]pyridin-6-yl)-1-(2-(thiophen-2-yl)acetyl)piperazine-2-carboxylate], the results for the IC50 at IDH1 R132H, in the assay with HT1080 cells and with U87R132H (U87MG) cells were 500 to 1000 nM, 1000 to 10000 nM and 1000 to 10000 nM, respectively.
Turning to `CC(C)OC(=O)CCC(=O)N1CCN(c2nc(C3CC3)c3c(c2C#N)CC(C)(C)OC3)C[C@H]1C(C)C` [Compound 457, (R)-isopropyl 4-(4-(5-cyano-8-cyclopropyl-3,3-dimethyl-3,4-dihydro-1H-pyrano[3,4-c]pyridin-6-yl)-2-isopropylpiperazin-1-yl)-4-oxobutanoate], the IC50 on IDH1 R132H was less than 500 nM; in the assay on HT1080 cells, 500 to 1000 nM; in the assay on U87R132H (U87MG) cells, 500 to 1000 nM.
